The term inhibition denotes the drop in the measured response relative to a control, in per cent.

What all share (type): biochemical
In assay [1] the target is T1, recombinant human 17β-HSD2 (Homo sapiens, UniProt P37059).
T1 construct: made in house; host or cells: Sd9 (Sf9) insect cells, baculovirus (Bac to Bac Expression System)
T1 sequence (P37059 1-387): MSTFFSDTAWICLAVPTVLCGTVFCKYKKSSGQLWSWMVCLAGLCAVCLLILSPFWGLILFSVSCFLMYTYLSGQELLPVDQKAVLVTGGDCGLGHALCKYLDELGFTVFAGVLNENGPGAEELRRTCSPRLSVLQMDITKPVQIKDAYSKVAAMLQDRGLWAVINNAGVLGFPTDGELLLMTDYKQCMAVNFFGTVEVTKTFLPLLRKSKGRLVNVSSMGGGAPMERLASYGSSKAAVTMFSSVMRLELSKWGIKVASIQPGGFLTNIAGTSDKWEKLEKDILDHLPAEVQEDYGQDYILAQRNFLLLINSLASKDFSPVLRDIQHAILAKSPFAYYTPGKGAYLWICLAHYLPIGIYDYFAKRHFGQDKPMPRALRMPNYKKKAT
Nature of the assay: Inhibition of recombinant human 17β-HSD2. The conditions noted are these: inhibitor 1 μM; 50 nM estradiol, 1 mM NADH, 30 min RT. The essentials:
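Sf9 baculovirus-expressed enzyme membrane extract (4 μg/ml) incubated 30 min at RT in 20 mM KH2PO4 pH 8.5 with 50 nM estradiol (³H-tracer) and 1 mM NADH, inhibitor at 1 μM or 0.1 μM, 1% DMSO. TCA-stopped; estradiol-to-estrone conversion by radio-HPLC, % inhibition = 100 − % conversion.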

The target in assay [2] is T2, recombinant human 17β-HSD1 (Homo sapiens, UniProt P14061).
T2 construct: made in house; host or cells: Sd9 (Sf9) insect cells, baculovirus (Bac to Bac Expression System)
T2 sequence (P14061 1-328): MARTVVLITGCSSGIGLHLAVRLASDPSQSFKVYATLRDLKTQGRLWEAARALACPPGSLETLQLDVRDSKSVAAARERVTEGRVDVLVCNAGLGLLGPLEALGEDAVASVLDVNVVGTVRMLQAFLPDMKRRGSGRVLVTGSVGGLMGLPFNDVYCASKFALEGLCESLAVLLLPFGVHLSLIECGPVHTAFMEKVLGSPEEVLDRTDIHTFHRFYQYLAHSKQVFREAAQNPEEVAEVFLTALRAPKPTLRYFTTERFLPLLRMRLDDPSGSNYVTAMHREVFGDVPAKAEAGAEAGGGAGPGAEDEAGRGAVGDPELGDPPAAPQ
The assay can be described thus: Inhibition of recombinant human 17β-HSD1. The conditions noted are these: inhibitor 100 nM; 30 nM estrone, 1 mM NADPH, 30 min RT. The essentials: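 Microsomes from Sf9 cells expressing human 17β-HSD1 (1 μg/ml) were incubated for 30 min at RT in 20 mM KH2PO4 pH 7.4 with 30 nM ³H-estrone, 1 mM NADPH and inhibitor at 1 μM or 0.1 μM (1% DMSO). Estrone-to-estradiol conversion was measured by radio-HPLC after TCA stop, and % inhibition was taken as 100 − % conversion.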

Assay [3] deals with HSD1 enzyme that is expressed in rabbit placenta tissue. The assay can be described thus: Inhibition of E1 to E2 conversion in rabbit placenta tissue homogenate. The settings on record: for Rabbit placenta inhibition % @100 nM: inhibitor 100 nM, 30 nM estrone, 30 min.

As to `Cc1cc(NC(=O)CC[C@@H]2C/C(=N\O)[C@@]3(C)CCC4c5ccc(Cl)cc5CCC4C23)no1` (stereo partly drawn) [Compound 54, 3-((13S,15R,E)-3-chloro-17-(hydroxyimino)-13-methyl-7,8,9,11,12,13,14,15,16,17-decahydro-6H-cyclopenta[a]phenanthren-15-yl)-N-(5-methylisoxazol-3-yl)propanamide], the inhibition at 1 µM in assay [1] came out at 0%. In assay [2], the inhibition at 0.1 µM worked out at 47%. Further, the “Rabbit placenta inhibition % @100 nM” value in assay [3] is listed as 10%.
On to `C[C@]12CCC3c4ccc(F)cc4CCC3C1[C@H](CCC(=O)Nc1ccc(N3CCOCC3)cn1)C/C2=N\O` (stereo partly drawn) [Compound 154, 3-((13S,15R,E)-3-fluoro-17-(hydroxyimino)-13-methyl-7,8,9,11,12,13,14,15,16,17-decahydro-6H-cyclopenta[a]phenanthren-15-yl)-N-(5-morpholinopyridin-2-yl)propanamide], for which, in assay [1], the inhibition at 1 µM stood at 7%. For the same compound, in assay [2], the inhibition at 0.1 µM worked out at 83%. Also, the “Rabbit placenta inhibition % @100 nM” value in assay [3] came out at 38%.
As for `C[C@]12CCC3c4cccc(F)c4CCC3C1[C@H](CCC(=O)Nc1cnccn1)C/C2=N\O` (stereo partly drawn) [Compound 126, 3-((13S,15R,E)-4-fluoro-17-(hydroxyimino)-13-methyl-7,8,9,11,12,13,14,15,16,17-decahydro-6H-cyclopenta[a]phenanthren-15-yl)-N-(pyrazin-2-yl)propanamide], in assay [1], the inhibition at 1 µM was found to be 3%. Also, the inhibition at 0.1 µM in assay [2] came to 53%. For the same compound, the “Rabbit placenta inhibition % @100 nM” value in assay [3] is 26%.
For the compound `C[C@]12CCC3c4cccc(F)c4CCC3C1[C@H](CCC(=O)NC1CCOCC1)C/C2=N\O` (stereo partly drawn) [Compound 122, 3-((13S,15R,E)-4-fluoro-17-(hydroxyimino)-13-methyl-7,8,9,11,12,13,14,15,16,17-decahydro-6H-cyclopenta[a]phenanthren-15-yl)-N-(tetrahydro-2H-pyran-4-yl)propanamide], the inhibition at 1 µM in assay [1] is 6%. In addition, the inhibition at 0.1 µM in assay [2] came to 67%. In addition, in assay [3], the “Rabbit placenta inhibition % @100 nM” value came to 4%.
Regarding `C[C@]12CCC3c4cccc(F)c4CCC3C1[C@H](CCC(=O)Nc1ncc(F)cc1F)C/C2=N\O` (stereo partly drawn) [Compound 146, N-(3,5-difluoropyridin-2-yl)-3-((13S,15R,E)-4-fluoro-17-(hydroxyimino)-13-methyl-7,8,9,11,12,13,14,15,16,17-decahydro-6H-cyclopenta[a]phenanthren-15-yl)propanamide], the inhibition at 1 µM in assay [1] was determined as 8%. Also, the inhibition at 0.1 µM in assay [2] was determined as 92%. Further, the “Rabbit placenta inhibition % @1000 nM” value in assay [3] (inhibitor 1000 nM) stood at 63% @.
As for `C[C@]12CCC3c4ccccc4CCC3C1[C@H](CCC(=O)Nc1cccnn1)C/C2=N\O` (stereo partly drawn) [Compound 82], the inhibition at 1 µM in assay [1] worked out at 7%. Also, the inhibition at 0.1 µM in assay [2] turned out to be 17%. The “Rabbit placenta inhibition % @100 nM” value in assay [3] came to 18%.
As for `C[C@]12CCC3c4ccc(Cl)cc4CCC3C1[C@H](CCC(=O)N1CCC3(CCOCC3)C1)C/C2=N\O` (stereo partly drawn) [Compound 48, 3-((13S,15R,E)-3-chloro-17-(hydroxyimino)-13-methyl-7,8,9,11,12,13,14,15,16,17-decahydro-6H-cyclopenta[a]phenanthren-15-yl)-1-(8-oxa-2-azaspiro[4.5]decan-2-yl)propan-1-one], in assay [1], the inhibition at 1 µM is -2%. The inhibition at 0.1 µM in assay [2] stood at 30%. In addition, the “Rabbit placenta inhibition % @100 nM” value in assay [3] is 1%.
With `C[C@]12CCC3c4cccc(F)c4CCC3C1[C@H](CCC(=O)Nc1ncccc1F)C/C2=N\O` (stereo partly drawn) [Compound 142, 3-((13S,15R,E)-4-fluoro-17-(hydroxyimino)-13-methyl-7,8,9,11,12,13,14,15,16,17-decahydro-6H-cyclopenta[a]phenanthren-15-yl)-N-(3-fluoropyridin-2-yl)propanamide], in assay [1], the inhibition at 1 µM is -1%. The inhibition at 0.1 µM in assay [2] is 93%. Besides, the “Rabbit placenta inhibition % @100 nM” value in assay [3] was found to be 34%.
The matching figures for `C[C@]12CCC3c4ccccc4CCC3C1[C@H](CCC(=O)Nc1ncccc1F)C/C2=N\O` (stereo partly drawn) [Compound 160, N-(3-fluoropyridin-2-yl)-3-((13S,15R,E)-17-(hydroxyimino)-13-methyl-7,8,9,11,12,13,14,15,16,17-decahydro-6H-cyclopenta[a]phenanthren-15-yl)propanamide]: 5%, 66% and 10%.
On to `C[C@]12CCC3c4ccc(Cl)cc4CCC3C1[C@H](CCC(=O)NC1=NCCS1)C/C2=N\O` (stereo partly drawn) [Compound 46, 3-((13S,15R,E)-3-chloro-17-(hydroxyimino)-13-methyl-7,8,9,11,12,13,14,15,16,17-decahydro-6H-cyclopenta[a]phenanthren-15-yl)-N-(4,5-dihydrothiazol-2-yl)propanamide], for which the inhibition at 1 µM in assay [1] stood at 0%. Besides, the inhibition at 0.1 µM in assay [2] came out at 55%. In addition, the “Rabbit placenta inhibition % @100 nM” value in assay [3] turned out to be 50%.
The matching figures for `CCN(CC)C(=O)CC[C@@H]1C/C(=N\O)[C@@]2(C)CCC3c4ccc(Cl)cc4CCC3C12` (stereo partly drawn) [Compound 52, 3-((13S,15R,E)-3-chloro-17-(hydroxyimino)-13-methyl-7,8,9,11,12,13,14,15,16,17-decahydro-6H-cyclopenta[a]phenanthren-15-yl)-N,N-diethylpropanamide]: 2%, 64% and 6%.
The matching figures for `CN(C)C(=O)c1ccc(NC(=O)CC[C@@H]2C/C(=N\O)[C@@]3(C)CCC4c5cccc(F)c5CCC4C23)nc1` (stereo partly drawn) [Compound 176, 6-(3-((13S,15R,E)-4-fluoro-17-(hydroxyimino)-13-methyl-7,8,9,11,12,13,14,15,16,17-decahydro-6H-cyclopenta[a]phenanthren-15-yl)propanamido)-N,N-dimethylnicotinamide]: 5%, 87% and 34%.
For `CCN(CC)C(=O)CC[C@@H]1C/C(=N\O)[C@@]2(C)CCC3c4cccc(F)c4CCC3C12` (stereo partly drawn) [Compound 24, N,N-diethyl-3-((13S,15R,E)-4-fluoro-17-(hydroxyimino)-13-methyl-7,8,9,11,12,13,14,15,16,17-decahydro-6H-cyclopenta[a]phenanthren-15-yl)propanamide], the inhibition at 1 µM in assay [1] worked out at 12%. Also, in assay [2], the inhibition at 0.1 µM came to 85%. Also, the “Rabbit placenta inhibition % @100 nM” value in assay [3] is listed as 18%.
Regarding `Cc1ccnc(NC(=O)CC[C@@H]2C/C(=N\O)[C@@]3(C)CCC4c5ccccc5CCC4C23)c1` (stereo partly drawn) [Compound 88, 3-((13S,15R,E)-17-(hydroxyimino)-13-methyl-7,8,9,11,12,13,14,15,16,17-decahydro-6H-cyclopenta[a]phenanthren-15-yl)-N-(4-methylpyridin-2-yl)propanamide], in assay [1], the inhibition at 1 µM is -2%. The inhibition at 0.1 µM in assay [2] was found to be 65%. Also, the “Rabbit placenta inhibition % @100 nM” value in assay [3] is given as 10%.
For `C[C@]12CCC3c4ccc(Cl)cc4CCC3C1[C@H](CCC(=O)Nc1ccc(C#N)cn1)C/C2=N\O` (stereo partly drawn) [Compound 72, 3-((13S,15R,E)-3-chloro-17-(hydroxyimino)-13-methyl-7,8,9,11,12,13,14,15,16,17-decahydro-6H-cyclopenta[a]phenanthren-15-yl)-N-(5-cyanopyridin-2-yl)propanamide], the inhibition at 1 µM in assay [1] amounted to 7%. Also, in assay [2], the inhibition at 0.1 µM worked out at 52%. In assay [3], the “Rabbit placenta inhibition % @100 nM” value came to 26%.
Turning to `CN1CCN(c2ccc(NC(=O)CC[C@@H]3C/C(=N\O)[C@@]4(C)CCC5c6ccccc6CCC5C34)nc2)CC1` (stereo partly drawn) [Compound 86, 3-((13S,15R,E)-17-(hydroxyimino)-13-methyl-7,8,9,11,12,13,14,15,16,17-decahydro-6H-cyclopenta[a]phenanthren-15-yl)-N-(5-(4-methylpiperazin-1-yl)pyridin-2-yl)propanamide], the inhibition at 1 µM in assay [1] is 6%. The inhibition at 0.1 µM in assay [2] was found to be 61%. In assay [3], the “Rabbit placenta inhibition % @100 nM” value is listed as 51%.
In the case of `C[C@]12CCC3c4ccccc4CCC3C1[C@H](CCC(=O)Nc1cccc(F)n1)C/C2=N\O` (stereo partly drawn) [Compound 168, N-(6-fluoropyridin-2-yl)-3-((13S,15R,E)-17-(hydroxyimino)-13-methyl-7,8,9,11,12,13,14,15,16,17-decahydro-6H-cyclopenta[a]phenanthren-15-yl)propanamide], the inhibition at 1 µM in assay [1] came out at 9%. The inhibition at 0.1 µM in assay [2] came out at 26%. Also, in assay [3], the “Rabbit placenta inhibition % @100 nM” value stood at 6%.

These data come from patent US20240309043A1, “THERAPEUTICALLY ACTIVE STEROIDAL DERIVATIVES” (Organon R&D Finland Ltd., priority 2017, published 2024).
